Patent US4203986A, “M-Trifluoro-methylphenyl-piperazine” (Metabio-Joullie, priority 1977, dated 1980)
Where two headings read alike, the source gives them in different places.

Columns and labels:
[1] = tested on: coughing induced by aqueous citric acid aerosol; assay: Antitussive action in the guinea pig (citric acid aerosol); type: in vivo
Source text: The technique used is that of SIECKMANN (W.) (in "Notions techniques de Pharmacologie generale" by Michel COLOT, page 75, Masson, Edit, 1972).
The guinea pigs .female. of mean weight 400 g, unanaesthesised, are subjected to the tussigenic effect of aerosols of a 7.5% aqueous citric acid solution. The animals are placed one by one in a cylindrical chamber having at its two extremities two canals, one serving as entrance for the aerosol and the other as its exit.
On the exit tube there is a lateral connection to a MERCURY gas pressure differential gauge joined to an RACIA counter. An adjustable screw clamp placed on the exit tube downstream of the lateral canal permits regulation of the sensitivity of the system such that the normal respiration of the animal only registers very weakly and that displacement of air in the chamber provoked by coughing attack is recorded clearly in the form of vertical traces.
Each guinea pig is first submitted to a control test for 5 minutes. One hour later it receives the test compound. It is replaced in the chamber for 5 minutes, 1 hour after oral administration of the compound.
The number of coughing attacks before and after administration is counted and the percentage inhibition is calculated.

[2] = Test on the cataleptic action in rats; type: in vivo; details: p.o., every 30 minutes for 6 hours
Protocol: (7) Test on the cataleptic action in rats (groups of 5 animals)
After administration p.o. of the test compounds, the degree of catalepsy is noted every 30 minutes for 6 hours by the test of crossing of the homolateral feet according to BOISSIER (J.R.) and SIMON (P.) (Therapy, 1963, 18, 1257-1277) and using the following notation:
0=animal which is not cataleptic
132 animal conserving position on one side only
2=animal conserving position on both sides

[3] = Acute toxicity in Mice; type: in vivo, mice (SWISS, EOPS, NMRI/Han, female); details: for LD50 at 360 h / MTD at 360 h: mouse, in vivo; for LD50 at 360 h: method of KARBER and BEHRENS; for MTD at 360 h: read-out: LD 0 (maximum dose tolerated)
Protocol: The compounds are administered in increasing doses (in arithmetic progression) to groups of five .female. SWISS, EOPS, NMRI/Han mice of the EVIC CEBA strain and having a mean weight of 22 g.
For intravenous administration the compounds are dissolved in distilled water, for oral administration they are suspended in 10% gum arabic solution (volume administered: 0.5 ml/22 g body weight).
The LD 50's are calculated according to the method of KARBER and BEHRENS (B.) (Arch. Exp. Path. Pharmakol. 1935, 177, 379-388).
For each administration method, there is indicated:
LD 0 or maximum dose tolerated.
LD 100 or minimum lethal dose.
The number of animals surviving in the different groups is definitively verified 15 days after administrating the compounds.

[4] = tested on: toxicity of amphetamine compounds; assay: Action on the toxicity of Amphetamine compounds in the mice; type: in vivo; details: per os
Protocol: (6) Action on the toxicity of Amphetamine compounds in the mice. (groups of 10 animals)
30 minutes after administration of the test compounds, amphetamine bitartrate is injected interperitioeally at a dose of 10 mg/kg (dose giving substantially 100% mortality) to mice in groups of 10 in boxes 12×18×13 cm. The number of animals surviving 24 hours after the amphetamine administration is noted.

[5] = tested on: coughing by stimulation of the superior larynx nerve; assay: Antitussive action in the cat (stimulation of the superior larynx nerve); type: in vivo; details: 12 mg/kg i.v.
Protocol: The cats all thriving, male or female of weight between 1.5 and 2.5 kg (test on 10 cats) are anaesthesised by nembutal at a dose of 30 mg/kg interperitoneally.
A cannula having three branches is placed in the trachea. Two of the branches are connected to a device for registering intratracheal pressure (MERCURY gas pressure gauge connected to an RACIA polygraph) The third branch allows elimination of part of the respiratory volume.
A cannula is placed in the femoral vein for administration of the test substances.
The stimulation parameters are as follows: frequency: 5 cycles per sec, amplitude: 5 millisec, voltage: 4 to 6 volts, duration: 15 to 45 sec. (according to the sensitivity of the animal).
There are carried a minimum of 3 stimulations spaced by 5 minutes and provoking coughing attacks of the same severity. The compound is then administered intravenously. The stimulation is then carried out every 5 minutes. If the compound reduces or suppresses the coughing the stimulation is continued until the reappearance of coughing to approximately the same degree as the initial coughing.
The results are expressed as a percentage reduction in the number of coughs.

O=C1CCCCC1CN1CCN(c2cccc(C(F)(F)F)c2)CC1 (centres unmarked) [LJ 1144]
inhibition in vivo at 182 mg/kg ([1]; Cavia porcellus, po, 1 h, 182 mg/kg p.o., read-out: Percentages of inhibition of coughing): 75%
antitussive activity (in words) ([1]; oral): also active if not more active than codeine
cataleptic effect [2]: absence of cataleptic effect
LD 100 (minimum lethal dose) ([3]; intravenous administration): 75 mg/kg
LD50 at 360 h ([3]; iv, intravenous administration): 61 mg/kg
MTD at 360 h ([3]; iv, intravenous administration): 37.5 mg/kg
LD50 at 360 h ([3]; po, oral administration): 1820 mg/kg
MTD at 360 h ([3]; po, oral administration): 1250 mg/kg
LD 100 (minimum lethal dose) ([3]; oral administration): 2250 mg/kg
toxicity of amphetamine compounds (in words) [4]: reduce the toxicity of amphetamine compounds
% maximum reduction in the number of coughs [5]: 85%
